The test system of series [1] is KDR.
Experimental: (§1) Inhibition of Binding of VEGF 165 to KDR & Flt-1 Receptors as Measured by SPA Assay
(§2) Preparation of conditioned media containing the KDR-Fc soluble VEGF receptor.:
(§3) Human 293KDR2 cells, which secrete a soluble KDR-Fc fusion protein, were grown in Dulbecco's Modified Eagle Medium supplemented with 10% fetal calf serum, 2 mM glutamine, 10 units/ml penicillin G sulfate, 10 μg/ml streptomycin sulfate and 175 μg/ml geneticin (G418) sulfate. Cells were plated at a density of 10^6 cells/100 mm dish and incubated at 37° C. in a humidified atmosphere containing 95% air and 5% CO2. After 10 days, conditioned medium was collected and centrifuged at 15,000 rpm for 15 min to remove dead cells. A total of 0.1 volume of 1.15% gelatin and 0.02 volume of 1M HEPES buffer (pH 8) was added. Leupeptin and pepstatin A were added to 1 μg/ml each.
(§4) Preparation of ^125 I-labelled VEGF ligand:
(§5) Recombinant human ^125 T-labelled VEGF 165 was purchased from Amersham (3,800 cpm/fmol). ^125,-labelled VEGF was diluted in DMEM supplemented with gelatin (0.15%) and HEPES buffer (20 mM) to a final concentration of 40,000 cpm/25 μl.
Preparation of SPA beads:
(§6) SPA PVT antibody-binding beads were purchased from Amersham. Each bottle of SPA beads (500 mg) was reconstituted in 25 ml of DMEM supplemented with gelatin (0.15%) and HEPES buffer (20 mM). The bottle contents were well mixed (15 min with a stir bar at room temperature).
(§7) SPA assays were performed in flat-bottom polystyrene 96 well microtitre plates.
(a) Pipette 50 μl of SPA beads to well.
(§8) (b) Pipette 25 μl of conditioned medium to well.
(§9) (d) Pipette 25 μl of ^125 J-VEGF 165 to well.
(§10) The appropriate control wells were set up to measure non-specific binding, solvent effect, etc. The assays were run in duplicate or triplicate wells. Plates were sealed and incubate at room temperature without shaking for 5 to 20 hours. Plates were then counted in a Packard TopCount microtitre plate liquid scintillation counter.
(§11) A typical assay gave 3,000 to 6,000 cpm bound. Background binding (measured in the presence of 100-fold molar excess of unlabelled VEGF 165) was typically 200 to 300 cpm bound. Compounds were tested at 30, 10, 3, 1, 0.3 and 0.1 μg/ml in DMSO. […] Half maximal binding was determined by the following equation:
(§12) s=maximal cpm bound in the absence of compound.
(§13) The IC50 values were determined graphically by the following procedure:
(§14) A graph was drawn plotting compound concentration (x-axis) versus cpm bound (y-axis).
(§15) The half maximal binding was calculated using the equation above.
(§16) A horizontal line (LINE A) was drawn which intersects the y-axis at the half maximal binding value.
(§17) A vertical line (LINE B) was drawn through the point where LINE A intersects the inhibition curve.
(§18) The point where LINE B intersects the x-axis was extrapolated from the graph to give the IC50 value.
In series [2] the test system is Human Epidermoid Tumors (A431). In kind it is in vivo, human tumor in BALB/c nu/nu female mice. On the procedure: In Vivo Inhibition of Growth of Human Epidermoid Tumors (A431)
In vivo testing was performed using BALB/c nu/nu female mice (Charles River, Wilmington, Mass.). The human epidermoid carcinoma cells A-431 (American Type Culture Collection, Rockville, Md. # CRL-155) were grown in vitro and 5×10^6 cells were injected subcutaneously (SC) into mice. When tumors attained a mass of between 100 and 150 mg, the mice were randomized into treatment groups (Day Zero). Mice were treated either intraperitoneally (IP) or orally (PO) once a day on days 1 through 20 post staging with doses of either 100 or 50 mg/kg/dose in 0.2% Klucel. Tumor mass was determined every 7 days [(length×width^2)/2] for up to 42 days post staging. Relative tumor growth (mean tumor mass on day 7, 14, 21, 28, 35 and 42 divided by the mean tumor mass on day zero) was determined for each treatment group. The %T/C (Tumor/Control) was determined by dividing the relative tumor growth of the treated group by the relative tumor growth of the placebo group and multiplying by 100. Data was statistically analyzed via Student-t-test of Log Relative Tumor Growth. A p-value (p≤0.05) indicates a statistically significant reduction in Relative Tumor Growth of Treated Group, compared to Placebo Control. A compound is considered to be active if the %T/C is found to be <60% and a p-value of less than or equal to 0.05 is achieved.

Series [3] concerns VEGF 165-induced vascular permeability. As to the kind of experiment: Inhibition of Vascular Permeability Assay (Miles Assay). In kind it is in vivo, BALB/c female mice. The following applies: 100 mg/kg, PO. The method, then:
Inhibition of Vascular Permeability Assay (Miles Assay) This assay was performed using BALB/c female mice (Charles River, Wilmington, Mass.). Both sides of the animals were shaved between 24 and 48 hours before the start of the assay. There were 10 animals per experimental group. […] One half hour later the animals were sacrificed by CO2 inhalation. […] Data was statistically analyzed via Student-t-test. A p-value (p≤0.05) indicates a statistically significant difference between the area of vascular permeability of the vehicle control verses the experimental group. Data was statistically analyzed via Student-t-test of Log Relative Area of Permiability. A p-value (p≤0.05) indicates a statistically significant reduction in permeability of Treated Group, compared to Placebo Control.

For series [4], the system named is corneal neovascularization. The experiment in a line: Corneal Neovascularization Model. In kind it is in vivo, mice. To be noted: 100 mg/kg, PO, days 1-10. The method, then:
Corneal Neovascularization Model
The sustained release preparations of angiogenic agents (ELVAX pellet) were prepared by solvent casting. […] The solvent was then evaporated, leaving the angiogenic agent in the polymeric matrix
Mice were anesthetized using a 1-1.5 ml/kg solution containing a mixture of 70% ketamine hydrochloride (100 mg/ml) and 30% xylazine (20 mg/ml). Using sterile surgical technique, an ELVAX pellet containing either basic FGF (100 ng) or VEGF (400 ng) was implanted into a previously dissected intrastromal corneal pocket 0.5 mm from the corneoscleral limbus. Following implantation the implantation site margins were reapposed and the eyes were treated with topical antibiotic ointment (bacitracin/neomycin/polymixin). On various days (between postoperative days 4 and 18) the extent of neovascularization was measured.
Neovascularization was monitored by measurements of new vessel growth within the previously avascular cornea. This parameter was obtained by measuring with calipers under microscopic magnification the length of the base of the neovascular bed at the limbus. The area of neovascularization,which is typically triangular, was calculated by dividing the product of the length of the vessel and the base length by two. Data was statistically analyzed via Student-t-test of Log Relative Reduction of Neovascularization. A p-value (p≤0.05) indicates a statistically significant reduction in neovascularization of Treated Group, compared to Placebo Control.

The subject of series [5] is Human Epidermoid Tumors (A431). Type of series: in vivo, human tumor in BALB/c nu/nu female mice. To be noted: 100 mg/kg, PO.
Series [6] addresses KDR. The experiment in a line: Inhibition of Binding of VEGF 165 to KDR Receptor as Measured by SPA Assay. To be noted: read-out: affinity constant for VEGF binding to the soluble KDR-Fc receptor.
Target sequence in this assay (P35968 20-327 limits assumed): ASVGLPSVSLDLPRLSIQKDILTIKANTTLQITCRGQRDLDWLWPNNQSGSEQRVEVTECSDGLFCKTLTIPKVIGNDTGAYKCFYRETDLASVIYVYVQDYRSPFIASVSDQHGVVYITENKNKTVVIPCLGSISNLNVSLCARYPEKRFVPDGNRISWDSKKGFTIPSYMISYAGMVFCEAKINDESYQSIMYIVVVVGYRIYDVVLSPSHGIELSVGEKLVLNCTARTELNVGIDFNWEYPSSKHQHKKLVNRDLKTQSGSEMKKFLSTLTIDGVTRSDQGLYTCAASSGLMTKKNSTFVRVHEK
Experimental: as §1, §2, §3, §4, §5
Preparation of SPA beads:
as §6, §7
(a) Pipette 50 μl of SPA beads to well.
as §8, §9, §10, §11, §12, §13, §14, §15, §16, §17, §18

Structures can show the parent of a compound that is named as a salt. Where two headings read alike, the source gives them in different places.

A word on the IC50: it is the concentration that gives 50% inhibition. The low end stands for greater potency, the high end for weaker potency. Regarding `O=C(Nc1cc2c(cc1S(=O)(=O)O)-c1cc(S(=O)(=O)O)c(NC(=O)c3ccc4cc5ccccc5cc4c3)cc1S2(=O)=O)c1ccc2cc3ccccc3cc2c1` [Example 54, 3,7-Bis-(anthracen-2-ylcarbonylamino)-5,5-dioxo-5H-5^6-dibenzothiophene-2,8-disulfonic acid, disodium salt], the IC50 in the series on KDR [1] turned out to be 0.15 µg/mL. For the same compound, the “% T/C (Day)” value in series [2] (50 mg/kg, IP, day 28) stood at 46%; in series [2] (50 mg/kg, PO, day 28), 38%.
In the series with KDR [1], `COc1ccc(/C=C/C(=O)Nc2cc3c(cc2S(=O)(=O)O)-c2cc(S(=O)(=O)O)c(NC(=O)/C=C/c4ccc(OC)c(OC)c4Cl)cc2S3(=O)=O)c(Cl)c1OC` [Example 27, 3,7-Bis[3-(2-chloro-3,4-di-methoxyphenyl)-acryloylamino]-5,5-dioxo-5H-5^6-dibenzothiophene-2,8-disulfonic acid, disodium salt] yielded an IC50 of 2.33 µg/mL. In series [2] (50 mg/kg, PO, day 28), the “% T/C (Day)” value amounted to 51%. Moreover, in series [2] (100 mg/kg, PO, day 28), the “% T/C (Day)” value is on record as 30%. In series [3] (4 hr prior to VEGF), the “% Control” value worked out at 73% and the “Lesion Area (measured area of vascular permeability)” value (“Lesion Area” for short) is 58.5 mm^2.
`CCOP(=O)(O)c1cc2c(cc1NC(=O)/C=C/c1ccc(OC)cc1)S(=O)(=O)c1cc(NC(=O)/C=C/c3ccc(OC)cc3)c(P(=O)(O)OCC)cc1-2` [Example 20, [3,7-Bis-[4-methoxyphenyl]-acryloylamino]-8-(ethoxyhydroxy-phosphoryl)-5,5-dioxo-5H-5^6-dibenzothiophen-2-yl]-phosphonic acid monoethyl ester, disodium salt]: the “Inhibition of Corneal Neovascularization” value in series [4] (Day 4) is 29%; in series [4] (Day 8), 25%; in series [4] (Day 11) it was 30%; in series [4] (Day 13), 26%. The same compound yielded a half-inhibitory concentration (IC50) with KDR [1] of 3.9 µg/mL. The “% T/C (Day)” value in series [5] (day 29) was 39%. Besides, the “S/T (No. Survivors/No. Treated)” value in series [2] (100 mg/kg, PO, Day +28 post tumor staging) is 5/5.
`CCCc1c(C(=O)Nc2cc3c(cc2S(=O)(=O)O)-c2cc(S(=O)(=O)O)c(NC(=O)c4cnn(-c5ccc(Cl)cc5)c4CCC)cc2S3(=O)=O)cnn1-c1ccc(Cl)cc1` [Example 45, 3,7-Bis-{[1-(4-chlorophenyl)-5-propyl-1H-pyrazole-4-carbonyl]amino}5,5-dioxo-5H-5^6-dibenzothiophene-2,8-disulfonic acid, disodium salt]: in the series on KDR [1], 2 µg/mL corresponded to half-maximal inhibition (IC50). Further, the “% T/C (Day)” value in series [2] (50 mg/kg, IP, day 28) turned out to be 50%.
`O=C(Nc1cc2sc3cc(NC(=O)c4cc5c(s4)-c4cc(Cl)ccc4SC5)c(C(=O)O)cc3c2cc1C(=O)O)c1cc2c(s1)-c1cc(Cl)ccc1SC2` [Example 6, 3,7-Bis[(8-chloro-4H-thieno[3,2-c][1]benzothiopyran-2-carbonyl)-amino]dibenzothio-phene-2,8-dicarboxylic acid, disodium]: the half-maximal inhibitory concentration (IC50) with KDR [1] was found to be 0.5 µg/mL. For the same compound, in series [5] (day 15), the “% T/C (Day)” value is 52%.
In the series on KDR [1], `COc1ccc(/C=C/C(=O)Nc2cc3c(cc2S(=O)(=O)O)-c2cc(S(=O)(=O)O)c(NC(=O)/C=C/c4ccc(OC)cc4)cc2S3(=O)=O)cc1` [Example 30, 3,7-Bis-[3-(4-methoxyphenyl)-acryloylamino]-5,5-dioxo-5H-5^6-dibenzothiophene-2,8-disulfonic acid, disodium salt] gave a concentration for half-maximal inhibition (IC50) of 0.5 µg/mL. For the same compound, in series [2] (50 mg/kg, PO, day 28), the “% T/C (Day)” value came out at 58%. The “% T/C (Day)” value in series [2] (100 mg/kg, PO, day 42) was found to be 56%. In series [3] (4 hr prior to VEGF), the “% Control” value is given as 56% and the “Lesion Area” value was determined as 52.9 mm^2.
On to `O=C(Nc1cc2c(cc1S(=O)(=O)O)-c1cc(S(=O)(=O)O)c(NC(=O)c3ccc4c(c3)C(=O)c3ccccc3C4=O)cc1S2(=O)=O)c1ccc2c(c1)C(=O)c1ccccc1C2=O` [Example 55, 3,7-Bis-[9,10-dihydro-9,10-dioxoanthracen-2-yl)carbonyl-amino]-5,5-dioxo-5H-5^6-dibenzothiophene-2,8-disulfonic acid, disodium salt], for which the IC50 with KDR [1] came out at 1 µg/mL. Also, the “% T/C (Day)” value in series [2] (50 mg/kg, PO, day 28) is given as 44%. Besides, in series [3] (1 hr prior to VEGF), the “% Control” value turned out to be 77% and the “Lesion Area” value stood at 71.6 mm^2. Also, in series [3] (4 hr prior to VEGF), the “% Control” value is on record as 74% and the “Lesion Area” value is given as 70.5 mm^2.
With VEGF, the Kd at KDR [6] is around 0.1 nM.

The values are drawn from US6022307A, “Substituted dibenzothiophenes having antiangiogenic activity” (American Cyanamid Company, priority 1999, dated 2000).
